# In US7741281B2, “Hepatitis C virus inhibitors” (Bristol-Myers Squibb Company, priority 2005, dated 2010):
# Assays:
# [1] = target: T1, HCV NS3/4A protease complex, H77 strain (Hepatitis C virus genotype 1a, UniProt P27958, C1454S/C1711G); experiment: FRET peptide assay to monitor HCV NS3/4A proteolytic activity (H77 strain); type: biochemical, HCV genotype 1a
# T1 construct: recombinant HCV NS3/4A protease complex (amino acids 1027 to 1711) for these strains; His tag (inferred from pET21b vector and Ni-NTA purification); made in house; host or cells: Escherichia coli BL21 (DE3), pET21b
# Excerpt: HCV NS3 protease complexes, derived from the BMS strain, H77 strain or J4L6S strain, were generated, as described below. These purified recombinant proteins were generated for use in a homogeneous assay (see below) to provide an indication of how effective compounds of the present disclosure would be in inhibiting HCV NS3 proteolytic activity.
# Serum from an HCV-infected patient was obtained from Dr. T. Wright, San Francisco Hospital. An engineered full-length cDNA (compliment deoxyribonucleic acid) template of the HCV genome (BMS strain) was constructed from DNA fragments obtained by reverse transcription-PCR (RT-PCR) of serum RNA (ribonucleic acid) and using primers selected on the basis of homology between other genotype 1a strains. From the determination of the entire genome sequence, a genotype 1a was assigned to the HCV isolate according to the classification of Simmonds et al. (See P Simmonds, K A Rose, S Graham, S W Chan, F McOmish, B C Dow, E A Follett, P L Yap and H Marsden, J. Clin. Microbiol., 31(6), 1493-1503 (1993)). […]
# [2] = target: T2, porcine pancreatic elastase (PPE) (Sus scrofa, UniProt P00772); experiment: Specificity assay, porcine pancreatic elastase (pNA substrate); type: biochemical; conditions: read-out: PPE activity in the specificity assays (IC50)
# T2 construct: purchased Sigma or EMDbiosciences
# Procedure: (§1) The specificities of compounds of the present disclosure were determined against a variety of serine proteases: human neutrophil elastase (HNE), porcine pancreatic elastase (PPE) and human pancreatic chymotrypsin and one cysteine protease: human liver cathepsin B. In all cases, a 96-well plate format protocol using colorimetric p-nitroaniline (pNA) substrate or fluorometric Amino-Methyl-Coumarin (AMC) substrate, specific for each enzyme was used as described previously (PCT Patent Application No. WO 00/09543) with some modifications. All enzymes were purchased from Sigma or EMDbiosciences while the substrates were from Bachem.
# (§2) Each pNA assay included a 2 h enzyme-inhibitor pre-incubation at room temperature followed by addition of substrate and hydrolysis to ˜15% conversion as measured on a Spectramax Pro microplate reader. The cathepsin B assay was initiated by adding substrate to a 10 min enzyme-inhibitor pre-incubation at room temperature, and the assay plate measured immediately using the Cytofluor Series 4000. Compound concentrations varied from 100 to 0.4 μM depending on their potency.
# (§3) The final conditions for each assay were as follows: […]
# (§4) The percentage of inhibition was calculated using the formula: [1−((UVinh−UVblank)/(UVctl−UVblank))]×100 […]
# [3] = target: T3, human liver cathepsin B (Homo sapiens, UniProt P07858); experiment: Specificity assay, cathepsin B (AMC substrate); type: biochemical; conditions: read-out: Cathepsin B activity in the specificity assays (IC50)
# T3 construct: purchased Sigma or EMDbiosciences; host or cells: human liver (as named)
# Procedure: as §1, §2, §3, §4
# T2 sequence (P00772 27-266): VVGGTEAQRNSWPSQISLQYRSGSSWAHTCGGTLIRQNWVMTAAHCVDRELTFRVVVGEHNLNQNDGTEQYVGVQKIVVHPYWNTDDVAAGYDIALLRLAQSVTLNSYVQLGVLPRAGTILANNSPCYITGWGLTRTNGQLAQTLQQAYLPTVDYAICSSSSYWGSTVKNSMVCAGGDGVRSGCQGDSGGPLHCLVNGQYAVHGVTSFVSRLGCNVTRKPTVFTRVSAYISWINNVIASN
# T1 sequence (P27958 1027-1711 C1454S/C1711G, one chain of several): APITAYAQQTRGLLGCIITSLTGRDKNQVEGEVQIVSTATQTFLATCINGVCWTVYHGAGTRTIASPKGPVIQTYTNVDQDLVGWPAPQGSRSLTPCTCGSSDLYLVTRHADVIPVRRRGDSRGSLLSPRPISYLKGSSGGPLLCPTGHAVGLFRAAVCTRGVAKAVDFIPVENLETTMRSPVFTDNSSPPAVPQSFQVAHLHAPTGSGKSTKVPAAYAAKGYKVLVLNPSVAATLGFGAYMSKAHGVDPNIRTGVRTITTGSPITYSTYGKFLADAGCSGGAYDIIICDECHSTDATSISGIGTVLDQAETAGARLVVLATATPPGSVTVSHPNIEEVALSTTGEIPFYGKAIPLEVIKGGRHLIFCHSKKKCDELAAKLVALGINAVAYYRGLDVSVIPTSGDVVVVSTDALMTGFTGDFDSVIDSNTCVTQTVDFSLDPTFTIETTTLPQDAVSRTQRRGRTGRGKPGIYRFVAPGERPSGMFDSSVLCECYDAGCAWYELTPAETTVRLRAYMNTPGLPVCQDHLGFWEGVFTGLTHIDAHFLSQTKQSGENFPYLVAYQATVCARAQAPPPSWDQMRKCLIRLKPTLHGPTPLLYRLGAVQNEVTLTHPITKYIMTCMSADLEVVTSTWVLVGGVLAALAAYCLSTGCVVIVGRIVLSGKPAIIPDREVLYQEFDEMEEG
structure (smiles),measurement,setting,value
COc1c(O[C@@H]2C[C@H]3C(=O)N[C@]4(C(=O)NS(=O)(=O)C5CC5)C[C@H]4/C=C\CCCCC[C@H](NC(=O)OC(C)(C)C)C(=O)N3C2)ccc2c(Cl)nccc12 [Compound 3],IC50,[1],0.0006 µM
same,IC50,[2],> 100 µM
same,IC50,[3],100 µM
